According to patent US11857596B2, “Animal feed additive and animal feed” (priority 2018, dated 2024):
No end group written: not given here.

Assays:
[1] = 500 to 1,000 ppm of quercetin added to the feed; cited from earlier work
intestinal microbiota = settings: cited from earlier work
[2] = system: Caco-2 cells (human intestinal epithelial cells); assay: Membrane strengthening experiment (TER recovery of barrier function after TNF-α); assay type: cell-based; settings: for function of strengthening the barrier function (membrane-strengthening ability): result in words, FIG. 1A-1H
Salmonella enterica (SE) [3] = assay: Salmonella infection test in chickens (body weight gain and feed conversion ratio); assay type: in vivo, chickens (broilers); settings: for BWG / FCR: 0-3 week, SE orally at 2 days of age; for body weight gain effect and feed conversion ratio improvement effect: result in words, Salmonella enterica infected broilers, test feed 21 days
Description: The coated-Tyr and Tyr prepared in the same manner as in Example 2-1 were added to the feed matrix having the composition presented in Table 2 so that the amount of the core material was 200 ppm, to thereby prepare a feed. Broilers at 1 day of age were introduced into a breeding facility for infection test (6 broilers/repeat and 2 repeats/test group), then Salmonella enterica (SE) was orally administered to the broilers at 2 days of age, and the test feed was fed for 21 days to evaluate the body weight gain effect and feed conversion ratio of chickens. Note that a conventional antimicrobial growth promoter, enramycin, was used as a positive control. As enramycin, a commercially available product (“Enramycin F-80” manufactured by Scientific Feed Laboratory Co., Ltd., uncoated) was used as it was.
The results are presented with a negative control of 100. […]
Broilers at 0 days of age were introduced into a breeding facility for infection test (6 broilers/repeat and 2 repeats/test group), then Salmonella enterica (SE) was orally administered to the broilers at 2 days of age, and the test feed was fed for 21 days to evaluate the body weight gain effect and feed conversion ratio. Note that a conventional antimicrobial growth promoter, enramycin, was used as a positive control. As enramycin, a commercially available product (“Enramycin F-80” manufactured by Scientific Feed Laboratory Co., Ltd., uncoated) was used as it was.

[4] = Metabolome analysis of intestinal tract contents and blood; assay type: in vivo, chickens; settings: metabolome analysis; chicken growth test of 2-3
Source text: It is thus considered that coated-Phe and coated-Tyr are assimilated by intestinal bacteria in feces and rapidly metabolized in blood.

[5] = Chicken growth test (body weight gain and feed conversion ratio); assay type: in vivo, broiler chickens
[6] = system: Bifidobacterium thermophilum AJ110569; assay: Antibacterial spectrum of bacteriocin, spot-on lawn method; assay type: cell-based; parameters: key: “+” to “+++++”: indicates the strength of antibacterial effect. The more “+”, the stronger the effect.; “+” to “+++++”: indicates the strength of antibacterial effect. The more “+”, the stronger the effect.; “+” to “+++++”: indicates the strength of antibacterial effect. The more “+”, the stronger the effect.; “+” to “+++++”: indicates the strength of antibacterial effect. The more “+”, the stronger the effect.; “+” to “+++++”: indicates the strength of antibacterial effect. The more “+”, the stronger the effect.; “ND”: indicates no effect detected (not detected); settings: Nisin A and Duramycin 1 mg/ml, others 10-fold concentrated culture supernatant of producers
[7] = system: Bacteroides fragilis JCM11019; assay: as above; assay type: cell-based; parameters: key: “+” to “+++++”: indicates the strength of antibacterial effect. The more “+”, the stronger the effect.; “+” to “+++++”: indicates the strength of antibacterial effect. The more “+”, the stronger the effect.; “+” to “+++++”: indicates the strength of antibacterial effect. The more “+”, the stronger the effect.; “+” to “+++++”: indicates the strength of antibacterial effect. The more “+”, the stronger the effect.; “+” to “+++++”: indicates the strength of antibacterial effect. The more “+”, the stronger the effect.; “ND”: indicates no effect detected (not detected); settings: Nisin A and Duramycin 1 mg/ml, others 10-fold concentrated culture supernatant of producers
[8] = system: Lactobacillus acidophilus; assay: as above; assay type: cell-based; parameters: key: “+” to “+++++”: indicates the strength of antibacterial effect. The more “+”, the stronger the effect.; “+” to “+++++”: indicates the strength of antibacterial effect. The more “+”, the stronger the effect.; “+” to “+++++”: indicates the strength of antibacterial effect. The more “+”, the stronger the effect.; “+” to “+++++”: indicates the strength of antibacterial effect. The more “+”, the stronger the effect.; “+” to “+++++”: indicates the strength of antibacterial effect. The more “+”, the stronger the effect.; “ND”: indicates no effect detected (not detected); settings: Nisin A and Duramycin 1 mg/ml, others 10-fold concentrated culture supernatant of producers
Clostridium perfringens = assay type: cell-based; parameters: key: “+” to “+++++”: indicates the strength of antibacterial effect. The more “+”, the stronger the effect.; “+” to “+++++”: indicates the strength of antibacterial effect. The more “+”, the stronger the effect.; “+” to “+++++”: indicates the strength of antibacterial effect. The more “+”, the stronger the effect.; “+” to “+++++”: indicates the strength of antibacterial effect. The more “+”, the stronger the effect.; “+” to “+++++”: indicates the strength of antibacterial effect. The more “+”, the stronger the effect.; “ND”: indicates no effect detected (not detected); settings: Nisin A and Duramycin 1 mg/ml, others 10-fold concentrated culture supernatant of producers
[9] = system: Lactobacillus salivarius AJ110152; assay: Minimum inhibitory concentration, spot-on-lawn method; assay type: cell-based; settings: indicator strain Lactobacillus salivarius AJ110152; MRS, 37° C.
[10] = system: Bacteroides fragilis JCM11019; assay: as above; assay type: cell-based; settings: indicator strain Bacteroides fragilis JCM11019; GAM, 37° C.
[11] = system: Salmonella enterica AJ2785; assay: microbe, parasite or virus in culture; assay type: cell-based
[12] = system: Lactobacillus acidophilus AJ13778; assay: Minimum inhibitory concentration, spot-on-lawn method; assay type: cell-based; settings: indicator strain Lactobacillus acidophilus AJ13778; MRS, 37° C.
[13] = system: Bifidobacterium thermophilum AJ110569; assay: as above; assay type: cell-based; settings: indicator strain Bifidobacterium thermophilum AJ110569; GAM, 37° C.
[14] = system: Clostridium perfringens AJ3350; assay: microbe, parasite or virus in culture; assay type: cell-based
Escherichia coli MG1665 = assay: Minimum inhibitory concentration, spot-on-lawn method; assay type: cell-based
Salmonella enterica (SE) [15] = assay: Salmonella infection test in chickens (body weight gain and feed conversion ratio); assay type: in vivo, chickens (broilers); settings: Table 5; 0-3 week; addition 10 ppm; SE orally at 2 days of age; negative control = 100
[16] = system: Enterococcus faecalis AJ110149; assay: Minimum inhibitory concentration, spot-on-lawn method; assay type: cell-based; settings: indicator strain Enterococcus faecalis AJ110149; MRS, 30° C.; ND = no effect detected
[17] = system: Lactobacillus salivarius AJ110152; assay: Antibacterial spectrum of bacteriocin, spot-on lawn method; assay type: cell-based; parameters: key: “+” to “+++++”: indicates the strength of antibacterial effect. The more “+”, the stronger the effect.; “+” to “+++++”: indicates the strength of antibacterial effect. The more “+”, the stronger the effect.; “+” to “+++++”: indicates the strength of antibacterial effect. The more “+”, the stronger the effect.; “+” to “+++++”: indicates the strength of antibacterial effect. The more “+”, the stronger the effect.; “+” to “+++++”: indicates the strength of antibacterial effect. The more “+”, the stronger the effect.; “ND”: indicates no effect detected (not detected); settings: Nisin A and Duramycin 1 mg/ml, others 10-fold concentrated culture supernatant of producers
[18] = system: Enterococcus faecalis AJ110149; assay: as above; assay type: cell-based; parameters: key: “+” to “+++++”: indicates the strength of antibacterial effect. The more “+”, the stronger the effect.; “+” to “+++++”: indicates the strength of antibacterial effect. The more “+”, the stronger the effect.; “+” to “+++++”: indicates the strength of antibacterial effect. The more “+”, the stronger the effect.; “+” to “+++++”: indicates the strength of antibacterial effect. The more “+”, the stronger the effect.; “+” to “+++++”: indicates the strength of antibacterial effect. The more “+”, the stronger the effect.; “ND”: indicates no effect detected (not detected); settings: Nisin A and Duramycin 1 mg/ml, others 10-fold concentrated culture supernatant of producers
Escherichia coli MG1655 = assay: as above; assay type: cell-based; parameters: key: “+” to “+++++”: indicates the strength of antibacterial effect. The more “+”, the stronger the effect.; “+” to “+++++”: indicates the strength of antibacterial effect. The more “+”, the stronger the effect.; “+” to “+++++”: indicates the strength of antibacterial effect. The more “+”, the stronger the effect.; “+” to “+++++”: indicates the strength of antibacterial effect. The more “+”, the stronger the effect.; “+” to “+++++”: indicates the strength of antibacterial effect. The more “+”, the stronger the effect.; “ND”: indicates no effect detected (not detected); settings: Nisin A and Duramycin 1 mg/ml, others 10-fold concentrated culture supernatant of producers
[19] = material conc. 100 uM, comparison value with Ctr (TNFα alone), 24 h
[20] = Table 5, addition 200 ppm, negative control = 100
[21] = Table 4, 0-3 weeks, addition 200 ppm (core material) in feed
[22] = Table 8, 10 ppm, control group = 100%

For `O=c1c(O)c(-c2ccc(O)c(O)c2)oc2cc(O)cc(O)c12` [Quercetin, quercetin], the “body weight gain effect (body weight gain efficiency) and feed consumption” value [1] is listed as “did not increase”, the feed conversion ratio [1] is listed as “remained almost unchanged or slightly decreased” and the “effect on the intestinal microbiota” value (intestinal microbiota) is listed as “negative effect”. For the same molecule, the activity at 100 µM ([2]; Homo sapiens, Caco-2, material conc. 100 uM, TER barrier function recovery, 24 h, read-out: Recovery ratio (%)) was 138%, the Recovery ratio/ctr [2, 19] was 1.23 and the “function of strengthening the barrier function (membrane-strengthening ability)” value (“function” below) [2] was “observed to have the function of strengthening the barrier function”.

For `N[C@@H](Cc1ccc(O)cc1)C(=O)O` [Tyrosin, tyrosine], the BWG (Salmonella enterica (SE) [3]; [20]) was 96%, the FCR (Salmonella enterica (SE) [3]; [20]) was 100% and the “body weight gain effect and feed conversion ratio improvement effect” value (Salmonella enterica (SE) [3]) was “no effect”. For the same molecule, the “detection in the intestinal tract contents or blood” value [4] was “not detected”, the BWG [5, 21] was 104% and the FCR [5, 21] was 98%. The “body weight gain effect and feed conversion ratio improvement effect” value ([5]; result in words, healthy broilers, 0 to 21 days of age) was “A certain degree of body weight gain effect was confirmed”, the Recovery ratio/ctr ([2]; 24 h, 20 µM) was 1.19 and the activity at 20 µM ([2]; Homo sapiens, Caco-2, material conc. 20 uM, TER barrier function recovery, 24 h, read-out: Recovery ratio (%)) was 138%. For the same molecule, the “function” value [2] was “observed to have the function of strengthening the barrier function”.

In the case of duramycin, the “Antibacterial spectrum (strength of antibacterial effect)” value (from here on “Antibacterial spectrum”) [6] is reported as “++”, the “Antibacterial spectrum” value [7] is reported as “+” and the “Antibacterial spectrum” value [8] is reported as “+”. The “Recovery ratio (%)” value ([2]; material conc. 1 uM, TER barrier function recovery, 24 h) was 120%, the Recovery ratio/ctr ([2]; material conc. 1 uM, comparison value with Ctr (TNFα alone), 24 h) was 1.04 and the “Antibacterial spectrum” value (Clostridium perfringens) was “+++++”.

Work on enramycin yielded a BWG (Salmonella enterica (SE) [3]; [22]) of 107%, an FCR (Salmonella enterica (SE) [3]; [22]) of 98% and a Minimum inhibitory concentration [9] of 500 µg/mL. It also gave a Minimum inhibitory concentration [10] of 64000 µg/mL, a Minimum inhibitory concentration [11] of over 100000 µg/mL and a Minimum inhibitory concentration [12] of 500 µg/mL. For the same molecule, the Minimum inhibitory concentration [13] was 500 µg/mL, the “Recovery ratio (%)” value ([2]; material conc. 100 uM, TER barrier function recovery, 24 h) was 144% and the Recovery ratio/ctr [2, 19] was 1.28. The Minimum inhibitory concentration [14] was 1000 µg/mL, the Minimum inhibitory concentration (Escherichia coli MG1665) was over 100000 µg/mL and the BWG (Salmonella enterica (SE) [15]) was 107%. The FCR (Salmonella enterica (SE) [15]) was 98% and the Minimum inhibitory concentration [16] was 4000 µg/mL.

For “nisin A (ITSISLCTPGCKTGALMGCNMKTATCHCSIHVSK; not fully specified (some residues, bridges); also: lantibiotic (ring and dehydro residues not placed); UniProt P13068 24-57, looked up) [reagent manufactured by Sigma-Aldrich, nisin content 2.5% by mass, balance sodium chloride and denatured milk solids]”, the “Antibacterial spectrum” value [6] was “+++++”, the “Antibacterial spectrum” value [17] was “+++++” and the “Antibacterial spectrum” value [18] was “+++++”. The BWG (Salmonella enterica (SE) [3]; [22]) was 101%, the FCR (Salmonella enterica (SE) [3]; [22]) was 100% and the “body weight gain effect and feed conversion ratio improvement effect” value (Salmonella enterica (SE) [3]) was “no effect”. For the same molecule, the “Antibacterial spectrum” value [7] was “++++”, the “Antibacterial spectrum” value (Escherichia coli MG1655) was “++” and the “Antibacterial spectrum” value [8] was “++++”. For the same molecule, the “function” value [2] was “observed to have the function of strengthening the barrier function” and the “Antibacterial spectrum” value (Clostridium perfringens) was “+++++”.
